# Reference: patent US20260007599A1, “TICAGRELOR IV FORMULATIONS FOR USE IN THE TREATMENT OF GRAM-POSITIVE BACTEREMIA” (Hyloris Developments SA, priority 2023, published 2026)
# Experiments:
# Type in all cases: physicochemical
# [1] = Dilution of a concentrated ticagrelor vial (8 ml, 65 mg ticagrelor, about 3 g HPβCD)
# [2] = Bulk hold study, ticagrelor 8 mg/ml in HPβCD 30% w/w, phosphate buffer pH 7.5
# Procedure: To investigate the impact of temperature and hold time, a new composition was prepared as per below Table 19. In first step a phosphate buffer at pH 7.5 was prepared and the buffered solution was heated to 40° C.-45° C. HPβCD was added to the buffered solution under continuous mixing. […] It usually took 30 mins to 4 hours depending on batch size. Then this solution was filtered through a 0.22-micron filter and packed in suitable clear or amber colored glass vials.
# [3] = Storage stability of Example 14 aqueous ticagrelor solutions; details: 5-15 mg/ml ticagrelor, 20-40% w/w HPβCD; 40° C. and 75% Relative Humidity
# Procedure: Aqueous ticagrelor solutions for intravenous administration were prepared with the following composition: • 5-15 mg/ml Ticagrelor • 20-40% w/w HPβCD • Q·S to 1 ml Acetate or Phosphate Buffer pH 4.5 to 6.5 • pH solution: 6-8 • Osmolality solution: 350-900 mOsm/kg
# Packaged in a glass vial, containing 5-15 ml aqueous ticagrelor solution.
# Storage stability: at least 3 months at 40° C. and 75% Relative Humidity
# [4] = Clear aqueous solutions with ticagrelor-cyclodextrin inclusion complex (Table 17); details: using 20-40% w/w HPβCD
# [5] = Impact of packaging material on stability, 40° C./75% RH; design: Assay: unit not given here; details: for Acetal impurity / Amine impurity / Assay / Description / Regiomer / Sum impurities >0.05 / Total (impurity) / Triol impurity / pH: HPβCD 32.5% w/w, 5 mM pH 7.5 phosphate buffer, 40° C./75% RH
# Procedure: To study the potential impact of the packaging material on the stability of the ticagrelor-cyclodextrin inclusion complex, a composition with 32.5% w/w HPβCD was prepared with procedures and precaution's similar to previous trials; samples were stored in transparent clear glass vials and amber colored glass vials at a temperature of 40° C./75% RH.
# [6] = Maximum solubility of ticagrelor in HPβCD solution without heat; details: without the use of heat
# Source text: In a further example, the maximum solubility of ticagrelor in an HPβCD solution, without the use of heat, was investigated.
# [7] = bulk hold at 45° C. in glass vials, T = 1 h
# [8] = bulk hold at 45° C. in glass vials, T = 110 h
# [9] = bulk solution in sealed vials, T = 1 M, 25° C.
# [10] = bulk solution in sealed vials, T = 1 M, 40° C.
smiles,measurement,setting,value
"CCCSc1nc(N[C@@H]2C[C@H]2c2ccc(F)c(F)c2)c2nnn([C@@H]3C[C@H](OCCO)[C@@H](O)[C@H]3O)c2n1 [ticagrelor, (1S,2S,3R,5S)-3-{7-[(1R,2S)-2-(3,4-difluorophenyl)cyclopropylamino]5-(propylthio)-3H-(1,2,3)triazolo (4,5-D)pyrimidin-3-yl}-5-(2 hydroxyethoxy) cyclopentane-1,2-diol]",clear solution on dilution,"[1]; 0,9 w/v % NaCl solution as diluent",not possible
same,appearance after dilution,"[1]; diluted with 25 ml 5 w/v % dextrose, final volume 33 ml",clear solution
same,"Acetal impurity, average content","[2]; bulk hold at 30° C., T0",0.04%
same,"Amine impurity, average content","[2]; bulk hold at 30° C., T0",0.06%
same,Assay ticagrelor,"[2]; bulk hold at 30° C., T0",105.60%
same,"Regiomer impurity, average content","[2]; bulk hold at 30° C., T0",0.00%
same,Sum impurities >0.05,"[2]; bulk hold at 30° C., T0",0.10%
same,Total impurities,"[2]; bulk hold at 30° C., T0",0.21%
same,"Triol Impurity, average content","[2]; bulk hold at 30° C., T0",0.05%
same,"Acetal impurity, average content","[2]; bulk hold at 30° C., T4 W",0.04%
same,"Amine impurity, average content","[2]; bulk hold at 30° C., T4 W",0.06%
same,Assay ticagrelor,"[2]; bulk hold at 30° C., T4 W",106.14%
same,"Regiomer impurity, average content","[2]; bulk hold at 30° C., T4 W",0.00%
same,Sum impurities >0.05,"[2]; bulk hold at 30° C., T4 W",0.06%
same,Total impurities,"[2]; bulk hold at 30° C., T4 W",0.21%
same,"Triol Impurity, average content","[2]; bulk hold at 30° C., T4 W",0.04%
same,"Acetal impurity, average content",[2]; [7],0.04%
same,"Amine impurity, average content",[2]; [7],0.05%
same,Assay ticagrelor,[2]; [7],107.87%
same,"Impurity at relative retention time 1.33, average content",[2]; [7],0.07%
same,Sum impurities >0.05,[2]; [7],0.12%
same,Total impurities,[2]; [7],0.20%
same,"Triol Impurity, average content",[2]; [7],0.04%
same,"Acetal impurity, average content",[2]; [8],0.04%
same,"Amine impurity, average content",[2]; [8],0.07%
same,Assay ticagrelor,[2]; [8],109.10%
same,"Impurity at relative retention time 1.33, average content",[2]; [8],0.03%
same,Sum impurities >0.05,[2]; [8],0.11%
same,Total impurities,[2]; [8],0.28%
same,"Triol Impurity, average content",[2]; [8],0.05%
same,"Acetal impurity, average content",[2]; [9],0.03%
same,"Amine impurity, average content",[2]; [9],0.06%
same,Assay ticagrelor,[2]; [9],107.22%
same,"Impurity at relative retention time 1.03, average content",[2]; [9],0.02%
same,"Impurity at relative retention time 1.33, average content",[2]; [9],0.03%
same,"Regiomer impurity, average content",[2]; [9],0.03%
same,Sum impurities >0.05,[2]; [9],0.06%
same,Total impurities,[2]; [9],0.23%
same,"Triol Impurity, average content",[2]; [9],0.01%
same,"Acetal impurity, average content",[2]; [10],0.00%
same,"Amine impurity, average content",[2]; [10],0.06%
same,Assay ticagrelor,[2]; [10],105.16%
same,"Impurity at relative retention time 1.03, average content",[2]; [10],0.02%
same,"Impurity at relative retention time 1.33, average content",[2]; [10],0.08%
same,"Regiomer impurity, average content",[2]; [10],0.08%
same,Sum impurities >0.05,[2]; [10],0.21%
same,Total impurities,[2]; [10],0.28%
same,"Triol Impurity, average content",[2]; [10],0.00%
same,Storage stability,[3],at least 3 months
same,ticagrelor solution concentration achieved,[4],5 −13 mg/ml
same,difference between clear and amber glass vials,"[5]; accelerated storage stability test, after 3 months",no significant difference
same,number of different impurities developed on storage,"[5]; accelerated storage stability test, without the cyclodextrin",6 to 8
same,Acetal impurity,"[5]; amber glass vials, 1 M",0.05%
same,Amine impurity,"[5]; amber glass vials, 1 M",0.04%
same,Assay,"[5]; amber glass vials, 1 M",100.24
same,Description,"[5]; amber glass vials, 1 M",clear
same,Regiomer,"[5]; amber glass vials, 1 M",0.01%
same,Sum impurities >0.05,"[5]; amber glass vials, 1 M",0.05%
same,Total (impurity),"[5]; amber glass vials, 1 M",0.22%
same,Triol impurity,"[5]; amber glass vials, 1 M",0.02%
same,pH,"[5]; amber glass vials, 1 M",7.70
same,Acetal impurity,"[5]; amber glass vials, 2 M",0.04%
same,Amine impurity,"[5]; amber glass vials, 2 M",0.04%
same,Assay,"[5]; amber glass vials, 2 M",99.89
same,Description,"[5]; amber glass vials, 2 M",clear
same,Regiomer,"[5]; amber glass vials, 2 M",0.02%
same,Sum impurities >0.05,"[5]; amber glass vials, 2 M",0.00%
same,Total (impurity),"[5]; amber glass vials, 2 M",0.28%
same,Triol impurity,"[5]; amber glass vials, 2 M",0.04%
same,pH,"[5]; amber glass vials, 2 M",7.69
same,Acetal impurity,"[5]; amber glass vials, 3 M",0.05%
same,Amine impurity,"[5]; amber glass vials, 3 M",0.06%
same,Assay,"[5]; amber glass vials, 3 M",98.93
same,Description,"[5]; amber glass vials, 3 M",clear
same,Regiomer,"[5]; amber glass vials, 3 M",0.04%
same,Sum impurities >0.05,"[5]; amber glass vials, 3 M",0.16%
same,Total (impurity),"[5]; amber glass vials, 3 M",0.33%
same,Triol impurity,"[5]; amber glass vials, 3 M",0.05%
same,pH,"[5]; amber glass vials, 3 M",7.66
same,Acetal impurity,"[5]; amber glass vials, T0",0.05%
same,Amine impurity,"[5]; amber glass vials, T0",0.04%
same,Assay,"[5]; amber glass vials, T0",98.34
same,Description,"[5]; amber glass vials, T0",clear
same,Regiomer,"[5]; amber glass vials, T0",0.00%
same,Sum impurities >0.05,"[5]; amber glass vials, T0",0.18%
same,Total (impurity),"[5]; amber glass vials, T0",0.40%
same,Triol impurity,"[5]; amber glass vials, T0",0.04%
same,pH,"[5]; amber glass vials, T0",7.66
same,Acetal impurity,"[5]; clear glass vials, 1 M",0.04%
same,Amine impurity,"[5]; clear glass vials, 1 M",0.04%
same,Assay,"[5]; clear glass vials, 1 M",101.71
same,Description,"[5]; clear glass vials, 1 M",clear
same,Regiomer,"[5]; clear glass vials, 1 M",0.01%
same,Sum impurities >0.05,"[5]; clear glass vials, 1 M",0.00%
same,Total (impurity),"[5]; clear glass vials, 1 M",0.22%
same,Triol impurity,"[5]; clear glass vials, 1 M",0.03%
same,pH,"[5]; clear glass vials, 1 M",7.65
same,Acetal impurity,"[5]; clear glass vials, 2 M",0.04%
same,Amine impurity,"[5]; clear glass vials, 2 M",0.04%
same,Assay,"[5]; clear glass vials, 2 M",99.69
same,Description,"[5]; clear glass vials, 2 M",clear
same,Regiomer,"[5]; clear glass vials, 2 M",0.02%
same,Sum impurities >0.05,"[5]; clear glass vials, 2 M",0.05%
same,Total (impurity),"[5]; clear glass vials, 2 M",0.28%
same,Triol impurity,"[5]; clear glass vials, 2 M",0.05%
same,pH,"[5]; clear glass vials, 2 M",7.63
same,Acetal impurity,"[5]; clear glass vials, 3 M",0.05%
same,Amine impurity,"[5]; clear glass vials, 3 M",0.06%
same,Assay,"[5]; clear glass vials, 3 M",98.25
same,Description,"[5]; clear glass vials, 3 M",clear
same,Regiomer,"[5]; clear glass vials, 3 M",0.04%
same,Sum impurities >0.05,"[5]; clear glass vials, 3 M",0.16%
same,Total (impurity),"[5]; clear glass vials, 3 M",0.33%
same,Triol impurity,"[5]; clear glass vials, 3 M",0.05%
same,pH,"[5]; clear glass vials, 3 M",7.58
same,Acetal impurity,"[5]; clear glass vials, T0",0.05%
same,Amine impurity,"[5]; clear glass vials, T0",0.04%
same,Assay,"[5]; clear glass vials, T0",98.34
same,Description,"[5]; clear glass vials, T0",clear
same,Regiomer,"[5]; clear glass vials, T0",0.00%
same,Sum impurities >0.05,"[5]; clear glass vials, T0",0.22%
same,Total (impurity),"[5]; clear glass vials, T0",0.40%
same,Triol impurity,"[5]; clear glass vials, T0",0.05%
same,pH,"[5]; clear glass vials, T0",7.65
same,Ticagrelor (maximum solubility in HPβCD solution),[6]; HPβCD 30% w/w,8000 µg/mL
same,Ticagrelor (maximum solubility in HPβCD solution),[6]; HPβCD 33% w/w,9000 µg/mL
